Reference: PubChem BioAssay (NCI)
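Briefly, cells in 96-well plates were exposed to five compound concentrations for 48 h, and endpoints were estimated by linear interpolation. GI50 marks 50% less growth. TGI is the concentration that stops growth completely.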

Assays:
Assay in all cases: growth of human tumour cells (NCI), 48 h
786-0 renal = system: 786-0 renal
A498 renal = system: A498 renal
A549 NSCLC = system: A549 NSCLC
ACHN renal = system: ACHN renal
BT-549 breast = system: BT-549 breast
CAKI-1 renal = system: CAKI-1 renal
CCRF-CEM leukemia = system: CCRF-CEM leukemia
COLO 205 colon = system: COLO 205 colon
DU-145 prostate = system: DU-145 prostate
EKVX NSCLC = system: EKVX NSCLC
HCC-2998 colon = system: HCC-2998 colon
HCT-116 colon = system: HCT-116 colon
HCT-15 colon = system: HCT-15 colon
HOP-62 NSCLC = system: HOP-62 NSCLC
HOP-92 NSCLC = system: HOP-92 NSCLC
HS 578T breast = system: HS 578T breast
HT29 colon = system: HT29 colon
IGROV1 ovarian = system: IGROV1 ovarian
KM12 colon = system: KM12 colon
LOX IMVI melanoma = system: LOX IMVI melanoma
M14 melanoma = system: M14 melanoma
MALME-3M melanoma = system: MALME-3M melanoma
MCF7 breast = system: MCF7 breast
MDA-MB-231 breast = system: MDA-MB-231 breast
MDA-MB-435 = system: MDA-MB-435
NCI-H226 lung = system: NCI-H226 lung
NCI-H23 lung = system: NCI-H23 lung
NCI-H460 lung = system: NCI-H460 lung
NCI-H522 lung = system: NCI-H522 lung
NCI/ADR-RES ovarian = system: NCI/ADR-RES ovarian
OVCAR-3 ovarian = system: OVCAR-3 ovarian
OVCAR-4 ovarian = system: OVCAR-4 ovarian
OVCAR-5 ovarian = system: OVCAR-5 ovarian
OVCAR-8 ovarian = system: OVCAR-8 ovarian
PC-3 prostate = system: PC-3 prostate
RPMI-8226 leukemia = system: RPMI-8226 leukemia
RXF 393 renal = system: RXF 393 renal
SF-268 CNS = system: SF-268 CNS
SF-295 CNS = system: SF-295 CNS
SF-539 CNS = system: SF-539 CNS
SK-MEL-2 melanoma = system: SK-MEL-2 melanoma
SK-MEL-28 melanoma = system: SK-MEL-28 melanoma
SK-MEL-5 melanoma = system: SK-MEL-5 melanoma
SK-OV-3 ovarian = system: SK-OV-3 ovarian
SN12C renal = system: SN12C renal
SNB-19 CNS = system: SNB-19 CNS
SNB-75 CNS = system: SNB-75 CNS
SW-620 colon = system: SW-620 colon
T-47D breast = system: T-47D breast
TK-10 renal = system: TK-10 renal
U251 CNS = system: U251 CNS
UACC-257 melanoma = system: UACC-257 melanoma
UACC-62 melanoma = system: UACC-62 melanoma
UO-31 renal = system: UO-31 renal

Oc1c(I)cc(I)cc1CNCCN(Cc1ccccn1)Cc1ccccn1
GI50 (786-0 renal): 1440 nM
TGI (786-0 renal): 2750 nM
GI50 (A498 renal): 1670 nM
TGI (A498 renal): 3040 nM
GI50 (A549 NSCLC): 1240 nM
TGI (A549 NSCLC): 2910 nM
GI50 (ACHN renal): 1130 nM
TGI (ACHN renal): 2340 nM
GI50 (BT-549 breast): 1240 nM
TGI (BT-549 breast): 2520 nM
GI50 (CAKI-1 renal): 1320 nM
TGI (CAKI-1 renal): 2680 nM
GI50 (CCRF-CEM leukemia): 1870 nM
TGI (CCRF-CEM leukemia): 21100 nM
GI50 (COLO 205 colon): 1490 nM
TGI (COLO 205 colon): 3680 nM
GI50 (DU-145 prostate): 1070 nM
TGI (DU-145 prostate): 2270 nM
GI50 (EKVX NSCLC): 911 nM
TGI (EKVX NSCLC): 2110 nM
GI50 (HCC-2998 colon): 1470 nM
TGI (HCC-2998 colon): 2950 nM
GI50 (HCT-116 colon): 1280 nM
TGI (HCT-116 colon): 2610 nM
GI50 (HCT-15 colon): 1180 nM
TGI (HCT-15 colon): 4170 nM
GI50 (HOP-62 NSCLC): 859 nM
TGI (HOP-62 NSCLC): 2670 nM
GI50 (HOP-92 NSCLC): 1540 nM
TGI (HOP-92 NSCLC): 3070 nM
GI50 (HS 578T breast): 2120 nM
TGI (HS 578T breast): 7430 nM
GI50 (HT29 colon): 2300 nM
TGI (HT29 colon): 5960 nM
GI50 (IGROV1 ovarian): 830 nM
TGI (IGROV1 ovarian): 2980 nM
GI50 (KM12 colon): 1200 nM
TGI (KM12 colon): 2670 nM
GI50 (LOX IMVI melanoma): 1140 nM
TGI (LOX IMVI melanoma): 2450 nM
GI50 (M14 melanoma): 1450 nM
TGI (M14 melanoma): 3000 nM
GI50 (MALME-3M melanoma): 1530 nM
TGI (MALME-3M melanoma): 3330 nM
GI50 (MCF7 breast): 1210 nM
TGI (MCF7 breast): 3190 nM
GI50 (MDA-MB-231 breast): 1150 nM
TGI (MDA-MB-231 breast): 3160 nM
GI50 (MDA-MB-435): 1550 nM
TGI (MDA-MB-435): 3150 nM
GI50 (NCI-H226 lung): 1070 nM
TGI (NCI-H226 lung): 2750 nM
GI50 (NCI-H23 lung): 1760 nM
TGI (NCI-H23 lung): 4660 nM
GI50 (NCI-H460 lung): 804 nM
TGI (NCI-H460 lung): 2480 nM
GI50 (NCI-H522 lung): 1370 nM
TGI (NCI-H522 lung): 3340 nM
GI50 (NCI/ADR-RES ovarian): 1800 nM
TGI (NCI/ADR-RES ovarian): 4790 nM
GI50 (OVCAR-3 ovarian): 1320 nM
TGI (OVCAR-3 ovarian): 2730 nM
GI50 (OVCAR-4 ovarian): 896 nM
TGI (OVCAR-4 ovarian): 2230 nM
GI50 (OVCAR-5 ovarian): 1420 nM
TGI (OVCAR-5 ovarian): 4180 nM
GI50 (OVCAR-8 ovarian): 2140 nM
TGI (OVCAR-8 ovarian): 8160 nM
GI50 (PC-3 prostate): 1160 nM
TGI (PC-3 prostate): 2920 nM
GI50 (RPMI-8226 leukemia): 1660 nM
TGI (RPMI-8226 leukemia): 7640 nM
GI50 (RXF 393 renal): 1500 nM
TGI (RXF 393 renal): 2990 nM
GI50 (SF-268 CNS): 1010 nM
TGI (SF-268 CNS): 2400 nM
GI50 (SF-295 CNS): 1230 nM
TGI (SF-295 CNS): 2630 nM
GI50 (SF-539 CNS): 1140 nM
TGI (SF-539 CNS): 2420 nM
GI50 (SK-MEL-2 melanoma): 1740 nM
TGI (SK-MEL-2 melanoma): 3800 nM
GI50 (SK-MEL-28 melanoma): 1410 nM
TGI (SK-MEL-28 melanoma): 3640 nM
GI50 (SK-MEL-5 melanoma): 1150 nM
TGI (SK-MEL-5 melanoma): 2450 nM
GI50 (SK-OV-3 ovarian): 1210 nM
TGI (SK-OV-3 ovarian): 2580 nM
GI50 (SN12C renal): 667 nM
TGI (SN12C renal): 2370 nM
GI50 (SNB-19 CNS): 693 nM
TGI (SNB-19 CNS): 2110 nM
GI50 (SNB-75 CNS): 544 nM
TGI (SNB-75 CNS): 2060 nM
GI50 (SW-620 colon): 1650 nM
TGI (SW-620 colon): 3470 nM
GI50 (T-47D breast): 1460 nM
TGI (T-47D breast): 2830 nM
GI50 (TK-10 renal): 1260 nM
TGI (TK-10 renal): 2540 nM
GI50 (U251 CNS): 827 nM
TGI (U251 CNS): 2890 nM
GI50 (UACC-257 melanoma): 1890 nM
TGI (UACC-257 melanoma): 4250 nM
GI50 (UACC-62 melanoma): 1490 nM
TGI (UACC-62 melanoma): 4210 nM
GI50 (UO-31 renal): 779 nM
TGI (UO-31 renal): 2070 nM
